# Earlier results as cited in PubChem BioAssay AID1259409 (Chemical Carcinogenesis Research Information System (CCRIS), 2018).
# Test system: rodent chemically induced tumor inhibition, incidence and multiplicity
# Assay: CCRIS tumor inhibitor studies
# Conditions: Route [Inhibitor]: ORAL, Species: RAT
structure (smiles),measurement,setting,value
COc1cc(/C=C/C(=O)O[C@H]2CC[C@]34C[C@]35CC[C@]3(C)[C@@H]([C@H](C)CCC=C(C)C)CC[C@@]3(C)[C@@H]5CC[C@H]4C2(C)C)ccc1O,"tumour outcome (control, treated, inhibition, significance)","Carcinogen: 3,2'-DIMETHYL-4-AMINOBIPHENYL, 13394-86-0, Dose [Inhibitor]: 0, 2% IN BASAL DIET BEGINNING POST CARCINOGEN TREATMENT AND CONTINUING FOR 40 WK (STUDY DURATION: 60 WK), Strain/Sex: F344/MALE, Target Tissue: Type of Lesion: SMALL INTESTINE: ADENOMA AND ADENOCARCINOMA, Dose [Carcinogen]: 50 MG/KG 1/2 WK FOR 20 WK TO RATS MAINTAINED ON ETHINYL ESTRADIOL CONTAINING DIET (0.75 PPM) FOR 1 WK CYCLED WITH ETHINY, Promoter: ETHINYL ESTRADIOL, 57-63-6","2/10 (20%), 3/13 (23%), -15%, not significant"
same,"tumour outcome (control, treated, inhibition, significance)","Carcinogen: 3,2'-DIMETHYL-4-AMINOBIPHENYL, 13394-86-0, Dose [Inhibitor]: 0, 2% IN BASAL DIET BEGINNING POST CARCINOGEN TREATMENT AND CONTINUING FOR 40 WK (STUDY DURATION: 60 WK), Strain/Sex: F344/MALE, Target Tissue: Type of Lesion: SUBCUTIS: TUMOR, Dose [Carcinogen]: 50 MG/KG 1/2 WK FOR 20 WK TO RATS MAINTAINED ON ETHINYL ESTRADIOL CONTAINING DIET (0.75 PPM) FOR 1 WK CYCLED WITH ETHINY, Promoter: ETHINYL ESTRADIOL, 57-63-6","1/10 (10%), 0/13 (0%), 100%, not significant"
same,"tumour outcome (control, treated, inhibition, significance)","Carcinogen: 3,2-DIMETHYL-4-AMINOBIPHENYL, 13394-86-0, Dose [Inhibitor]: 0, 2% IN BASAL DIET BEGINNING POST CARCINOGEN TREATMENT AND CONTINUING FOR 40 WK (STUDY DURATION: 60 WK), Strain/Sex: F344/MALE, Target Tissue: Type of Lesion: PREPUTIAL GLAND: ADENOMA AND CARCINOMA, Dose [Carcinogen]: 50 MG/KG 1/2 WK FOR 20 WK TO RATS MAINTAINED ON ETHINYL ESTRADIOL CONTAINING DIET (0.75 PPM) FOR 1 WK CYCLED WITH ETHINY, Promoter: ETHINYL ESTRADIOL, 57-63-6","5/10 (50%), 8/13 (62%), -24%, not significant"
same,"tumour outcome (control, treated, inhibition, significance)","Carcinogen: 3,2-DIMETHYL-4-AMINOBIPHENYL, 13394-86-0, Dose [Inhibitor]: 0, 2% IN BASAL DIET BEGINNING POST CARCINOGEN TREATMENT AND CONTINUING FOR 40 WK (STUDY DURATION: 60 WK), Strain/Sex: F344/MALE, Target Tissue: Type of Lesion: ZYMBAL GLAND: ADENOMA AND CARCINOMA, Dose [Carcinogen]: 50 MG/KG 1/2 WK FOR 20 WK TO RATS MAINTAINED ON ETHINYL ESTRADIOL CONTAINING DIET (0.75 PPM) FOR 1 WK CYCLED WITH ETHINY, Promoter: ETHINYL ESTRADIOL, 57-63-6","2/10 (20%), 0/13 (0%), 100%, not significant"
same,"tumour outcome (control, treated, inhibition, significance)","Carcinogen: 3,2-DIMETHYL-4-AMINOBIPHENYL, 13394-86-0, Dose [Inhibitor]: 0, 200% PPM IN BASAL DIET BEGINNING POST CARCINOGEN TREATMENT AND CONTINUING FOR 40 WK (STUDY DURATION: 60 WK), Strain/Sex: F344/MALE, Target Tissue: Type of Lesion: LARGE INTESTINE: ADENOMA AND ADENOCARCINOMA, Dose [Carcinogen]: 50 MG/KG 1/2 WK FOR 20 WK TO RATS MAINTAINED ON ETHINYL ESTRADIOL CONTAINING DIET (0.75 PPM) FOR 1 WK CYCLED WITH ETHINY, Promoter: ETHINYL ESTRADIOL, 57-63-6","3/10 (30%), 3/13 (23%), 23%, not significant"
same,"tumour outcome (control, treated, inhibition, significance)","Carcinogen: 7,12-DIMETHYLBENZ[A]ANTHRACENE [57-97-6], Dose [Inhibitor]: 1% IN DIET FOR 35 WK BEGINNING 1 WK POST LAST CARCINOGEN DOSE (STUDY DURATION: 36 WK), Strain/Sex: SPRAGUE-DAWLEY/FEMALE, Target Tissue: Type of Lesion: MAMMARY GLAND: CARCINOMA, Dose [Carcinogen]: 50 MG/KG BW ONCE (STUDY DURATION: 36 WK), Promoter: NONE","14/15 (93%), 15/16 (94%), -1%, not significant"
same,"tumour outcome (control, treated, inhibition, significance)","Carcinogen: 7,12-DIMETHYLBENZ[A]ANTHRACENE [57-97-6], Dose [Inhibitor]: 1% IN DIET FOR 35 WK BEGINNING 1 WK POST LAST CARCINOGEN DOSE (STUDY DURATION: 36 WK), Strain/Sex: SPRAGUE-DAWLEY/FEMALE, Target Tissue: Type of Lesion: MAMMARY GLAND: FIBROADENOMA, Dose [Carcinogen]: 50 MG/KG BW ONCE (STUDY DURATION: 36 WK), Promoter: NONE","3/15 (20%), 2/16 (13%), 35%, not significant"
same,"tumour outcome (control, treated, inhibition, significance)","Carcinogen: 7,12-DIMETHYLBENZ[A]ANTHRACENE, 57-97-6, Dose [Inhibitor]: 0, 1% IN DIET FOR 35 WK BEGINNING POST CARCINOGEN DOSE (STUDY DURATION: 36 WK), Strain/Sex: SPRAGUE-DAWLEY/FEMALE, Target Tissue: Type of Lesion: EAR DUCT: TUMOR, Dose [Carcinogen]: 50 MG/KG BW IN CORN OIL ONCE, Promoter: NONE USED","5/15 (33%), 7/16 (44%), -33%, not significant"
same,"tumour outcome (control, treated, inhibition, significance)","Carcinogen: 7,12-DIMETHYLBENZ[A]ANTHRACENE, 57-97-6, Dose [Inhibitor]: 0, 1% IN DIET FOR 35 WK BEGINNING POST CARCINOGEN DOSE (STUDY DURATION: 36 WK), Strain/Sex: SPRAGUE-DAWLEY/FEMALE, Target Tissue: Type of Lesion: MAMMARY GLAND: ADENOCARCINOMA, Dose [Carcinogen]: 50 MG/KG BW IN CORN OIL ONCE, Promoter: NONE USED","14/15 (93%), 15/16 (94%), -1%, not significant"
same,"tumour outcome (control, treated, inhibition, significance)","Carcinogen: 7,12-DIMETHYLBENZ[A]ANTHRACENE, 57-97-6, Dose [Inhibitor]: 0, 1% IN DIET FOR 35 WK BEGINNING POST CARCINOGEN DOSE (STUDY DURATION: 36 WK), Strain/Sex: SPRAGUE-DAWLEY/FEMALE, Target Tissue: Type of Lesion: MAMMARY GLAND: FIBROADENOMA, Dose [Carcinogen]: 50 MG/KG BW IN CORN OIL ONCE, Promoter: NONE USED","3/15 (20%), 2/16 (13%), 35%, not significant"
